Assay results published in ChEMBL document CHEMBL3885861, “Open TG-GATES”.

Organism: Rattus norvegicus
Test: Open TG-GATES - Regimen: Single
Assay type: toxicity, organism-based, Sprague-Dawley
Set-up: regimen Single, gender Male, age 6 weeks
Conditions: in vivo, po, 0 mg/kg, route gavage, dose level Control; for APTT / Bas / Eos / Fbg / Ht / Lym / MCH / MCHC / MCV / Mono / Neu / PT / Plat / RBC / Ret / WBC: tissue Blood; for KIDNEY_L / KIDNEY_R / KIDNEY_TOTAL: tissue Kidney; for LIVER: tissue Liver; for ALP / ALT / AST / BUN / CRE / Ca / Cl / DBIL / GLC / IP / K / LDH / Na / PL / RALB / TBIL / TC / TG / TP / gamma-GTP: tissue Plasma

Cc1cccc(Nc2cc(Cl)nc(SCC(=O)O)n2)c1C [PIRINIXIC ACID]
TERMINAL_BW (3 h): 202.9 g
APTT (3 h): 15.1 s
Bas (3 h): 0%
Eos (3 h): 0.4%
Fbg (3 h): 280 mg/dL
Ht (3 h): 40.2%
Lym (3 h): 77.6%
MCH (3 h): 21.5 pg
MCHC (3 h): 33.9%
MCV (3 h): 63.3 fL
Mono (3 h): 2.6%
Neu (3 h): 18%
PT (3 h): 12.3 s
Plat (3 h): 115.3 x10_4/uL
RBC (3 h): 636.6 x10_4/ul
Ret (3 h): 7.4%
WBC (3 h): 78.3 x10_2/uL
KIDNEY_L (3 h): 0.9 g
KIDNEY_R (3 h): 0.8 g
KIDNEY_TOTAL (3 h): 1.7 g
LIVER (3 h): 8.6 g
ALP (3 h): 1509.2 IU/L
ALT (3 h): 48.6 IU/L
AST (3 h): 77.6 IU/L
BUN (3 h): 11 mg/dL
CRE (3 h): 0.2 mg/dL
Ca (3 h): 10.9 mg/dL
Cl (3 h): 104.8 meq/L
DBIL (3 h): 0.036 mg/dL
GLC (3 h): 183.6 mg/dL
IP (3 h): 10.5 mg/dL
K (3 h): 3.8 meq/L
LDH (3 h): 91.6 IU/L
Na (3 h): 140 meq/L
PL (3 h): 166.4 mg/dL
RALB (3 h): 2.6 g/dL
TBIL (3 h): 0.046 mg/dL
TC (3 h): 82.8 mg/dL
TG (3 h): 121 mg/dL
TP (3 h): 5.6 g/dL
gamma-GTP (3 h): 1.2 IU/L
TERMINAL_BW (6 h): 201.9 g
APTT (6 h): 17.1 s
Bas (6 h): 0%
Eos (6 h): 0.6%
Fbg (6 h): 283.8 mg/dL
Ht (6 h): 40.4%
Lym (6 h): 73.4%
MCH (6 h): 22 pg
MCHC (6 h): 34.3%
MCV (6 h): 64 fL
Mono (6 h): 2.2%
Neu (6 h): 22.8%
PT (6 h): 12.2 s
Plat (6 h): 115 x10_4/uL
RBC (6 h): 630.8 x10_4/ul
Ret (6 h): 7.6%
WBC (6 h): 95.9 x10_2/uL
KIDNEY_L (6 h): 0.8 g
KIDNEY_R (6 h): 0.8 g
KIDNEY_TOTAL (6 h): 1.7 g
LIVER (6 h): 8 g
ALP (6 h): 1969 IU/L
ALT (6 h): 37.8 IU/L
AST (6 h): 74.4 IU/L
BUN (6 h): 10.2 mg/dL
CRE (6 h): 0.2 mg/dL
Ca (6 h): 10.7 mg/dL
Cl (6 h): 106.2 meq/L
DBIL (6 h): 0.026 mg/dL
GLC (6 h): 185.8 mg/dL
IP (6 h): 10.3 mg/dL
K (6 h): 4.1 meq/L
LDH (6 h): 69.2 IU/L
Na (6 h): 139.8 meq/L
PL (6 h): 145 mg/dL
RALB (6 h): 2.5 g/dL
TBIL (6 h): 0.046 mg/dL
TC (6 h): 75.8 mg/dL
TG (6 h): 78 mg/dL
TP (6 h): 5.4 g/dL
gamma-GTP (6 h): 1.2 IU/L
TERMINAL_BW (9 h): 205.2 g
APTT (9 h): 15.9 s
Bas (9 h): 0%
Eos (9 h): 0.8%
Fbg (9 h): 268 mg/dL
Ht (9 h): 39.5%
Lym (9 h): 74.6%
MCH (9 h): 21.3 pg
MCHC (9 h): 34.1%
MCV (9 h): 62.4 fL
Mono (9 h): 2.6%
Neu (9 h): 21.6%
PT (9 h): 12.4 s
Plat (9 h): 117.6 x10_4/uL
RBC (9 h): 632.8 x10_4/ul
Ret (9 h): 7.6%
WBC (9 h): 69.1 x10_2/uL
KIDNEY_L (9 h): 0.9 g
KIDNEY_R (9 h): 0.9 g
KIDNEY_TOTAL (9 h): 1.7 g
LIVER (9 h): 7.9 g
ALP (9 h): 1428 IU/L
ALT (9 h): 34.8 IU/L
AST (9 h): 67.4 IU/L
BUN (9 h): 10.6 mg/dL
CRE (9 h): 0.2 mg/dL
Ca (9 h): 10.6 mg/dL
Cl (9 h): 103.6 meq/L
DBIL (9 h): 0.02 mg/dL
GLC (9 h): 189 mg/dL
IP (9 h): 10.7 mg/dL
K (9 h): 3.6 meq/L
LDH (9 h): 52.8 IU/L
Na (9 h): 140.8 meq/L
PL (9 h): 146 mg/dL
RALB (9 h): 2.5 g/dL
TBIL (9 h): 0.038 mg/dL
TC (9 h): 80.2 mg/dL
TG (9 h): 53.6 mg/dL
TP (9 h): 5.2 g/dL
gamma-GTP (9 h): 1 IU/L
TERMINAL_BW (24 h): 212.4 g
APTT (24 h): 16.5 s
Bas (24 h): 0%
Eos (24 h): 1%
Fbg (24 h): 285.8 mg/dL
Ht (24 h): 38.8%
Lym (24 h): 73.8%
MCH (24 h): 21.6 pg
MCHC (24 h): 34.2%
MCV (24 h): 63.2 fL
Mono (24 h): 3%
Neu (24 h): 21.8%
PT (24 h): 12.2 s
Plat (24 h): 112.5 x10_4/uL
RBC (24 h): 614 x10_4/ul
Ret (24 h): 7.3%
WBC (24 h): 80.5 x10_2/uL
KIDNEY_L (24 h): 0.9 g
KIDNEY_R (24 h): 0.9 g
KIDNEY_TOTAL (24 h): 1.9 g
LIVER (24 h): 9.7 g
ALP (24 h): 1823.2 IU/L
ALT (24 h): 42.8 IU/L
AST (24 h): 71.4 IU/L
BUN (24 h): 14.8 mg/dL
CRE (24 h): 0.2 mg/dL
Ca (24 h): 11 mg/dL
Cl (24 h): 104.6 meq/L
DBIL (24 h): 0.02 mg/dL
GLC (24 h): 179.8 mg/dL
IP (24 h): 8.4 mg/dL
K (24 h): 4 meq/L
LDH (24 h): 61 IU/L
Na (24 h): 142.6 meq/L
PL (24 h): 147 mg/dL
RALB (24 h): 2.6 g/dL
TBIL (24 h): 0.032 mg/dL
TC (24 h): 79.8 mg/dL
TG (24 h): 71.6 mg/dL
TP (24 h): 5.5 g/dL
